Measurements reported in US9499535B2, “Kinase inhibitors” (ORIGENIS GMBH, priority 2011, dated 2016).

Tests used:
LRRK2 = LRRK2 (Homo sapiens, UniProt Q5S007); assay: LRRK2 assay (LanthaScreen Eu Kinase Binding Assay); details: 5 nM LRRK2, 10 nM tracer 236, RT 1 h; read-out: LRRK2 Activites: IC50
Summary of the method: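 IC50 was derived from a sigmoidal dose-response fit with variable slope, plotting emission ratio against inhibitor concentration. The read-out is loss of FRET between a europium-labelled anti-tag antibody on the kinase and a tracer displaced by inhibitor.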

SYK kinase = biological target: T1, SYK kinase (Homo sapiens, UniProt P43405); assay: SYK assay (OMNIA Kinase Assay, Invitrogen); type: biochemical; details: apparent Ki calculated from the IC50 using the Cheng-Prusoff equation; 1 mM ATP, 10 μM Peptide Substrate; read-out: SYK Activities: Ki
T1 construct: purchased Invitrogen, Carlsbad
Summary of the method: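 Reaction velocities were measured from kinetic fluorescence reads (360/485 nm, every 30 s over 30 min) of Mg2+-chelated SOX signal. Conditions were 1 mM ATP, 10 μM Omnia Tyr 7 peptide and 0.2 mM DTT at 30° C. Sigmoidal IC50 fits were converted to apparent Ki using Cheng-Prusoff.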

MYLK = MYLK (Homo sapiens, UniProt Q15746); assay: MYLK assay (LanthaScreen Eu Kinase Binding Assay); details: 5 nM MYLK, 30 nM tracer 236, RT 1 h; read-out: MYLK Activites: IC50
Summary of the method: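 TR-FRET tracer-displacement binding: 5 nM MYLK with 2 nM Eu-anti-GST antibody and 30 nM tracer 236 in kinase buffer A, 1 h at RT. The 665/615 nm emission ratio was plotted against inhibitor concentration; IC50 from variable-slope sigmoidal fit.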

Chain of LRRK2 (Q5S007 970-2527 limits assumed): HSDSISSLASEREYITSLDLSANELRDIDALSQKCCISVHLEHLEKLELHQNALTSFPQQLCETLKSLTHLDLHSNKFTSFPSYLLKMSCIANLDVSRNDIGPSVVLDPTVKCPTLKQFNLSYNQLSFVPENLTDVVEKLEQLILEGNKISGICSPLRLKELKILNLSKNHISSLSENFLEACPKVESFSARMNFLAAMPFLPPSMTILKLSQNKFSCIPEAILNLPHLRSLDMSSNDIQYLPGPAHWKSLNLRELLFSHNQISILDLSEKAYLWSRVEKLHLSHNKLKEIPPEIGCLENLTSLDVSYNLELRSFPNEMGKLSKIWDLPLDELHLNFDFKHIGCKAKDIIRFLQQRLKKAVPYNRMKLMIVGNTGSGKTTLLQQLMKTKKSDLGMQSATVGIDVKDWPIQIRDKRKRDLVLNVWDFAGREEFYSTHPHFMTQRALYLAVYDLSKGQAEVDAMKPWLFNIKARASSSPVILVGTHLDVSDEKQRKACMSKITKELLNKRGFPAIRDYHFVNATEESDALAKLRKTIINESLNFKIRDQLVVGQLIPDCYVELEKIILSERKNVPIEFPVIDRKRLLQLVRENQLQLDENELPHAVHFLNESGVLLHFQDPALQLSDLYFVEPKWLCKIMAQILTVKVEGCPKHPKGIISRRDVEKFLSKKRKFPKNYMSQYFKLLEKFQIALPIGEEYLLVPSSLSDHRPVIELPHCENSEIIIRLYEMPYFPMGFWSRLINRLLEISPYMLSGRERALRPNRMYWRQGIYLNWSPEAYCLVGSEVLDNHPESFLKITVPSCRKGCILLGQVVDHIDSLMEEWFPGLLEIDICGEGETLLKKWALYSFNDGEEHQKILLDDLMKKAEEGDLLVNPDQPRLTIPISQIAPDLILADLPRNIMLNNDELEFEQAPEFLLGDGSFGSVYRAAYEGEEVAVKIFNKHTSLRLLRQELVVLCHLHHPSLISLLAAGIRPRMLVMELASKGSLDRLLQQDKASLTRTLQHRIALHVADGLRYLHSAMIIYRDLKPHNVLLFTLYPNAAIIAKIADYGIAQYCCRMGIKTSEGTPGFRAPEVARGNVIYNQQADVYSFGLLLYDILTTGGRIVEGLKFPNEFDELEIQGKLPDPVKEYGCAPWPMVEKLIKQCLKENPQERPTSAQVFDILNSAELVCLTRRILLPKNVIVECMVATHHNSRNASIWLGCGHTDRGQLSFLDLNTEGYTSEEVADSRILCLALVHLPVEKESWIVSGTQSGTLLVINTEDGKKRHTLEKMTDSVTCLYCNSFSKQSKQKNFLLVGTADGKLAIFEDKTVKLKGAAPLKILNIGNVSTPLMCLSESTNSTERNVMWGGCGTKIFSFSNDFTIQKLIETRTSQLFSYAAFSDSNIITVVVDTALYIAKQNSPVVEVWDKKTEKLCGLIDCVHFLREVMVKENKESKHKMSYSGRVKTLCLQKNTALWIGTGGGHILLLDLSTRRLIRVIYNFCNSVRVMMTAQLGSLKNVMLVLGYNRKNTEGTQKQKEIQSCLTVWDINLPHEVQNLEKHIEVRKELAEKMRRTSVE
Chain of MYLK (Q15746 whole entry): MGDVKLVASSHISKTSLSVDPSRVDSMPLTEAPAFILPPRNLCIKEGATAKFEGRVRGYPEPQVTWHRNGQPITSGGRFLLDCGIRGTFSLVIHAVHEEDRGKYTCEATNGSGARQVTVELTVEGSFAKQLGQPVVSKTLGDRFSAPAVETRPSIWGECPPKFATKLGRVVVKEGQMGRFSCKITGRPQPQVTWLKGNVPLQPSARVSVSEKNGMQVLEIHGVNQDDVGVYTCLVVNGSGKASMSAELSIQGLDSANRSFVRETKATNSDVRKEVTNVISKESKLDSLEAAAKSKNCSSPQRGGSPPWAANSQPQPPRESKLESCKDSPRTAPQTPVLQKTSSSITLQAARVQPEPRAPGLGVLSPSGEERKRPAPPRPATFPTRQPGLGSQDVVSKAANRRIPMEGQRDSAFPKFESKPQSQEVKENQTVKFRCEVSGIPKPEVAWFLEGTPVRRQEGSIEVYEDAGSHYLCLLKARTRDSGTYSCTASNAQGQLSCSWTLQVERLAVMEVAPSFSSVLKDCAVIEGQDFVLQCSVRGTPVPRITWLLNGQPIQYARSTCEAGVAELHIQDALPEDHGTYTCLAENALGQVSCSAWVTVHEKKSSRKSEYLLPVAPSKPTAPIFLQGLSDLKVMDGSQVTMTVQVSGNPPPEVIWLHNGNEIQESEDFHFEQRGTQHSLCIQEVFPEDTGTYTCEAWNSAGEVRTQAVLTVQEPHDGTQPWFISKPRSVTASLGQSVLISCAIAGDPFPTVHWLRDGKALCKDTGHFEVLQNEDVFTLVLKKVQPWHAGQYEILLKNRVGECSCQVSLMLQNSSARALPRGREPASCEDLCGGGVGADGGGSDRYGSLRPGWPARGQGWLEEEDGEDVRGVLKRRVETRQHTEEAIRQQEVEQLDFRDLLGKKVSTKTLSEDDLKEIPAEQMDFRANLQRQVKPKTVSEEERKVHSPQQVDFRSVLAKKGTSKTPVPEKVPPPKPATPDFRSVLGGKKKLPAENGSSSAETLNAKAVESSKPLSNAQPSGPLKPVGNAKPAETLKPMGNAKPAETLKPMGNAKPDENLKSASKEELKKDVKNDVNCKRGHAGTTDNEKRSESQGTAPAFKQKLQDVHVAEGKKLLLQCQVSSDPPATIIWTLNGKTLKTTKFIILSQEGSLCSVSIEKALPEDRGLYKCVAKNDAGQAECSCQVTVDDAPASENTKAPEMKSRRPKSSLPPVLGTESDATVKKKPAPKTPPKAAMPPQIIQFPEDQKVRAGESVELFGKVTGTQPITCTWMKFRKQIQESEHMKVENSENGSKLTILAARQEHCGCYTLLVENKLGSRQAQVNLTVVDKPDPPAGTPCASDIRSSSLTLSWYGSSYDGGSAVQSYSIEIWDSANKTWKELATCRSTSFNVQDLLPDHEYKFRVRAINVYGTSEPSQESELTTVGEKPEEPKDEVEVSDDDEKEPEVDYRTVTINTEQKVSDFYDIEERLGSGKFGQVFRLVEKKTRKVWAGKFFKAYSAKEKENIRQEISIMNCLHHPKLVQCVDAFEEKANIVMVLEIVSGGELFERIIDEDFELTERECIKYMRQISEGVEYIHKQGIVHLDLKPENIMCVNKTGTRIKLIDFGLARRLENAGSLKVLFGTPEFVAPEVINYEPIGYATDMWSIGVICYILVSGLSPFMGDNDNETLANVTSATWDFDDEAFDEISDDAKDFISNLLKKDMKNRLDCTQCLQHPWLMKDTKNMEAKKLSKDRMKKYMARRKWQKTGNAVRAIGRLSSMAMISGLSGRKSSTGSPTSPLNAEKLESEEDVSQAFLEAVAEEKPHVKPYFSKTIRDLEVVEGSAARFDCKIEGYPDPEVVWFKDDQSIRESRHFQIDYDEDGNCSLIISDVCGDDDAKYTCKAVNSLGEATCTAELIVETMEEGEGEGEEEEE

Row | IC50 (LRRK2) [nM] | Ki (SYK kinase) [nM] | IC50 (MYLK) [nM] | Compound
1 | 100 to 1000 | 100 to 1000 | < 5000 | COc1ccc2nc(Nc3cccc(S(C)(=O)=O)c3)c3n[nH]cc3c2c1 [Example #320, 8-methoxy-N-(3-(methylsulfonyl)phenyl)-2H-pyrazolo[3,4-c]quinolin-4-amine]
2 | 100 to 1000 | 10 to 100 | < 5000 | O=C1COc2ccc(Nc3nc4ccc(F)cc4c4cn[nH]c34)cc2N1 [Example #324, 6-((8-fluoro-3H-pyrazolo[3,4-c]quinolin-4-yl)amino)-2H-benzo[b][1,4]oxazin-3(4H)-one]
3 | 100 to 1000 | 10 to 100 | < 5000 | COc1cccc2nc(Nc3ccc(N4CCN(C5CC5)CC4)cc3)c3n[nH]cc3c12 [Example #243, [4-(4-cyclopropyl-piperazin-1-yl)-phenyl]-(9-methoxy-2H-pyrazolo[3,4-c]quinolin-4-yl)-amine]
4 | 100 to 1000 | 10 to 100 | < 5000 | COc1ccc2nc(Nc3ccc(C4=NCCN4)cc3)c3n[nH]cc3c2c1 [Example #86, [4-(4,5-Dihydro-1H-imidazol-2-yl)-phenyl]-(8-methoxy-2H-pyrazolo[3,4-c]quinolin-4-yl)-amine]
